pIC50: −log10 of the molar value. Calls of active or inactive are those of the source. How the calls were made is not given here.
Tested on: 697B B-cell line, NF-kB luciferase reporter luminescence
Assay: NF-kB reporter inhibition in B cells, dose response, selectivity assay for T-cell antigen receptor NF-kB inhibitors, 697B cells, luminescence (AID 489033)

Row | Structure (SMILES) | IC50 | pIC50
1 | COc1ccc(/C=N/NC(=O)c2[nH]c3ccc(Br)cc3c2-c2ccccc2)cc1 | > 80 µM (inactive) | –
2 | Cc1csc2ncnc(NC3CCN(Cc4ccccc4)CC3)c12 | – | 5.08
3 | O=C(N=Nc1c(O)[nH]c2ccc(Br)cc12)c1ccccc1-n1cccc1 | 57 µM (inactive) | –
4 | COC(=O)c1ccccc1NC1=C/C(=N\S(=O)(=O)c2cccs2)c2ccccc2C1=O | – | 5.31
5 | CN(C)c1ccc(-c2nn3c(-c4ccccc4Cl)nnc3s2)cc1 | > 80 µM (inactive) | –
6 | Cc1cc(O)c2c(c1O)C(=O)[C@]13C(=C2O)C(=O)[C@@H]2[C@@H](O)[C@H]1[C@@H]1[C@H](O)[C@H]3C(=O)C3=C(O)c4c(O)cc(C)c(O)c4C(=O)[C@]312 | > 80 µM (inactive) | –
7 | COc1cccc(N2CCN(C(=O)c3ccc(CS(=O)c4ccccc4C)o3)CC2)c1 (stereo not drawn) | > 80 µM (inactive) | –
8 | CCCCCn1c2c(c(=N)c3ccccc31)CCC2 | 50.3 µM (inactive) | –
9 | Cc1c(C(=O)OCC(C)C)[nH]c2c1C(=O)CC(c1cccs1)C2 (stereo not drawn) | > 80 µM (inactive) | –
10 | CCCCCCCCC[n+]1cccc2c3ccccc3ccc21 | – | 5.70
11 | O=C(Nc1ccncc1)c1ccc(Cl)c(S(=O)(=O)N2CCc3ccccc32)c1 | 61.9 µM (inactive) | –
12 | COc1ccc(CNC(=O)c2c(C)oc3c2C(=O)c2ccccc2C3=O)cc1 | > 80 µM (inactive) | –
13 | COc1ccc(C(=O)NNC(=O)c2ccccn2)cc1 | – | 5.28
14 | CCC1CCCCN1C(=O)c1cc(COc2ccc3ncccc3c2)on1 (stereo not drawn) | > 80 µM (inactive) | –
15 | CC(=O)Nc1ccc(S(=O)(=O)N2CCCc3ccccc32)cc1 | > 80 µM (inactive) | –
16 | CCCOc1ccc(/C=N/Nc2cc(N3CCOCC3)ncn2)c(O)c1 | – | 4.96
17 | COc1ccc(Cn2c(SCc3ccc(C)cc3)nc3cc(OC)c(OC)cc3c2=N)cc1Cl | – | 5.32
18 | COc1cc(C(=O)N/N=C/c2cc([N+](=O)[O-])cs2)cc(OC)c1OC | – | 5.25
19 | CCOc1cc(C#N)c(NC(=O)c2cccnc2)cc1OCC | > 80 µM (inactive) | –
20 | CCc1ccc(S(=O)(=O)/N=C2\C=C(Nc3ccc(O)cc3)C(=O)c3ccccc32)cc1 | – | 5.28
21 | O=C1CC(c2cccc(Br)c2)c2cc3c(cc2N1)CCC3 (stereo not drawn) | 30.7 µM (inactive) | –
22 | CCCOCCOC(=O)c1[nH]c2c(c1C)C(=O)CC(c1cc(OC)ccc1OC)C2 (stereo not drawn) | > 80 µM (inactive) | –
23 | COc1ccc(-c2csc(NC(=O)C3CCN(c4ncnc5sc(C)c(C)c45)CC3)n2)cc1OC | – | 4.94
24 | CC(C)Nc1ccc(C(CC(N)=O)NC(=O)Cc2ccc(Br)cc2)cc1[N+](=O)[O-] (stereo not drawn) | 37.8 µM (inactive) | –

Row | Structure (SMILES) | IC50 | pIC50
25 | C[C@]12CC[C@@H]3c4cc(O)c(O)cc4CC[C@H]3[C@@H]1CC[C@@H]2O | – | 4.84
26 | CSc1ccc(COC(=O)c2cc([N+](=O)[O-])ccc2N2CCOCC2)cc1 | 30 µM (inactive) | –
27 | Cc1ccc(S(=O)(=O)NCc2ccncc2)c(C)c1C | > 80 µM (inactive) | –
28 | Cc1ccc(C(=O)c2cc([N+](=O)[O-])ccc2N2CCCCC2)cc1 | > 80 µM (inactive) | –
29 | O=C(NCCOc1ccccc1)c1cc([N+](=O)[O-])ccc1N1CCOCC1 | > 80 µM (inactive) | –
30 | Cc1ccc(NC(=O)c2cc3ccccc3oc2=O)cc1S(=O)(=O)N(C)C | – | > 6.80
31 | O=[N+]([O-])c1nn(-c2ccc3c(c2)OCCO3)n(O)c1=Nc1ccccc1 | – | > 6.80
32 | CCCCOc1ccc(Br)cc1/C(C)=N/NC1=NCCN1 | 28.6 µM (inactive) | –
33 | O=C(NCc1cccs1)C1CCN(c2ccc(S(=O)(=O)N3CCOCC3)cc2Cl)CC1 | > 80 µM (inactive) | –
34 | Cc1ccc(C)c(NS(=O)(=O)c2ccc(-c3cnc(C4CC4)o3)cc2)c1 | > 80 µM (inactive) | –
35 | O=C1c2cccc3cc([N+](=O)[O-])cc(c23)C(=O)N1CCN1CCCC1 | – | 4.73
36 | CCN(CC)c1ccc(NC(=O)c2cc(OC)cc(OC)c2)c(C)c1 | > 80 µM (inactive) | –
37 | Cc1ccc(C)c(N=Nc2ccc(O)c3ncccc23)c1 | – | 5.35
38 | Clc1ccc2c(c1)C(C1=NCCN1)c1ccccc1CS2 (stereo not drawn) | > 80 µM (inactive) | –
39 | COc1ccc(C[C@H](N)C(=O)N[C@H]2[C@@H](O)[C@H](n3cnc4c(N(C)C)ncnc43)O[C@@H]2CO)cc1 | – | 5.79
40 | Cc1ccc2c(c1)C=CC(C#N)N2C(=O)c1ccccc1 (stereo not drawn) | > 80 µM (inactive) | –
41 | O=c1cc(-c2ccccc2)[nH]c2cc(Cl)ccc12 | > 80 µM (inactive) | –
42 | COc1ccc2c(c1)/C(=C/c1cnc[nH]1)C(=O)N2 | – | 5.32
43 | O=C(CSc1nnc(Cn2nnc3ccccc32)o1)N(Cc1ccc(F)cc1)c1ccccc1 | – | 4.90
44 | CCOC(=O)Nc1nc(-c2ccccc2)c(C(=O)c2ccccc2)s1 | > 80 µM (inactive) | –
45 | Clc1cccc(Cl)c1/C=N/Nc1c(Cl)cncc1Cl | > 80 µM (inactive) | –
46 | COc1cc(NS(=O)(=O)c2ccc(C)cc2)c2ncccc2c1 | – | 5.98
47 | CC[n+]1cc(C)ccc1/C=C/c1ccc(N(C)C)cc1 | > 80 µM (inactive) | –
48 | CCOC(=O)C(C)Oc1cccc2c(=O)n(CC(=O)NCc3ccc(F)cc3)ccc12 (stereo not drawn) | > 80 µM (inactive) | –

Source: PubChem BioAssay AID489033 (Sanford-Burnham Center for Chemical Genomics, 2010)
